Measurements: US5945404A, “21-Substituted steroid compound” (priority 1993, dated 1999)
Where “and” joins values, the source holds several entries; their conditions need not be identical. Equal values may be shown once. Read-outs that look alike come from different tables or passages of the source.

How the values were obtained:
[1] = tested on: croton oil-induced granuloma; experiment: Croton Oil-induced Granuloma (granuloma pouch); type: in vivo, male Sprague-Dawley rats; conditions: for inhibition in vivo at 1 mg / inhibition in vivo at 0.01 mg / inhibition in vivo at 0.1 mg: Rattus norvegicus, 168 h
Description: Groups of 5 male Sprague-Dawley rats each weighing 160-180 g were used. Under ether anesthesia, the dorsum of animals was closely clipped, and air sac was formed by injecting air (20 ml) subcutaneously. Next day cotton seed oil containing 1% croton oil was injected into the air sac. Drugs to be tested were suspended in the cotton seed oil containing 1% croton oil, and administered. After 7 days, the blood was taken from the animal under ether anesthesia. Then, the granuloma pouch fluid (exudate) was collected, and the fluid volume was measured. The pouch wall formed around granuloma and thymus were also excised and weighed.

granuloma = experiment: Inhibitory Effects on Granuloma Growth (Paper Disk Method); type: in vivo, male Sprague-Dawley rats; conditions: Rattus norvegicus, topical, 168 h, rat, paper disk; ointment 0.1%, 50 mg once a day, 7 days; read-out: Weight of granuloma, per cent of change of the controls
Description: Ointment to be tested was prepared usign white soft paraffin as the base and containing dexamethasone at 0.1% concentration.
Groups of 5 male Sprague-Dawley rats each weighing 150-170 g were used. Under ether anesthesia, the dorsum of animals was closely clipped, and medianly incised. After each one pre-weighed paper disk (8-mm diameter, 1-mm thick, weighing about 30 mg; Toyo-Roshi filter paper) was inserted subcutaneously into both sides of the dorsal incision, the incision was sutured. In order to prevent bacterial infection, penicillin G potassium salt (2,000 units) per rat was intramascularly injected after the surgery. Base or ointment to be tested (50 mg each) was rubbed carefully into the skin over the paper disk inserted site, for 30 seconds once a day for the duration of 7 days. Rats were slipped plastic cangs on to prevent them from licking the drug applied sites. On the 8th day of the test, rats were sacrificed under ether anesthesia, and granulomas were carefully excised. Granulomas were dried at 40° C. for 24 h, and their dry weights were recorded.
Inhibitory effects of dexamethasone derivatives on the weight increase of granuloma of experimental animals as compared with those of control animals are shown as per cent of inhibition ov er the control in Table 1. Figures wihth asterisks in the table indicate signfiicant difference. The same will be applied to the following other tables.

[2] = 1.0 mg/rat, 7 days, read-out: Effects on granuloma weight, per cent of inhibition over the control
[3] = 1.0 mg/rat, 7 days, read-out: Effects on pouch fluid (exudate) volume, per cent of inhibition over the control
[4] = 0.01 mg/rat, 7 days, read-out: Effects on granuloma weight, per cent of inhibition over the control
[5] = 0.01 mg/rat, 7 days, read-out: Effects on pouch fluid (exudate) volume, per cent of inhibition over the control
[6] = 0.1 mg/rat, 7 days, read-out: Effects on granuloma weight, per cent of inhibition over the control
[7] = 0.1 mg/rat, 7 days, read-out: Effects on pouch fluid (exudate) volume, per cent of inhibition over the control
[8] = read-out: Effects on granuloma weight, per cent of inhibition over the control

Compound	inhibition in vivo at 1 mg [1, 2] [%]	inhibition in vivo at 1 mg [1, 3] [%]	change in vivo at 0.1 %, 50 mg (granuloma) [%]	inhibition in vivo at 0.01 mg [1, 4] [%]	inhibition in vivo at 0.01 mg [1, 5] [%]	inhibition in vivo at 0.1 mg [1, 6] [%]	inhibition in vivo at 0.1 mg [1, 7] [%]	also measured
CCC(=O)O[C@]1(C(=O)COC(C)=O)[C@@H](C)C[C@H]2[C@@H]3CCC4=CC(=O)C=C[C@]4(C)[C@@]3(F)[C@@H](O)C[C@@]21C [Betamethasone acetate propionate, reference compound]	–	–	–	–	–	–	–	Effects on granuloma weight, per cent of inhibition over the control ([1]; 0.01 mg/rat, 7 days): 21.2 ± 6.4 per cent; Effects on granuloma weight, per cent of inhibition over the control ([1]; 0.1 mg/rat, 7 days): 26.0 ± 6.9 per cent; Effects on pouch fluid (exudate) volume, per cent of inhibition over the control ([1]; rat, in vivo): 27.6 ± 8.1 and 43.6 ± 4.7
CCCCC(=O)O[C@]1(C(=O)CO)[C@@H](C)C[C@H]2[C@@H]3CCC4=CC(=O)C=C[C@]4(C)[C@@]3(F)[C@@H](O)C[C@@]21C [Betamethasone valerate, reference compound]	18.7 ± 11.7	23.9 ± 12.1	–	–	–	–	–	Effects on thymus weight, per cent of inhibition over the control thymus weight ([1]; 1.0 mg/rat, 7 days): 37.0 ± 3.0 per cent and 58.9 ± 3.3 per cent
Cc1ccc(C(=O)OC[C@H]2O[C@H](OCC(=O)[C@@]3(O)[C@H](C)C[C@H]4[C@@H]5CCC6=CC(=O)C=C[C@]6(C)[C@@]5(F)[C@@H](O)C[C@@]43C)[C@H](OC(=O)c3ccc(C)cc3)[C@@H](OC(=O)c3ccc(C)cc3)[C@@H]2OC(=O)c2ccc(C)cc2)cc1 [Compound 4α]	–	–	-0.6 ± 5.1	–	–	–	–	–
Cc1ccc(C(=O)OC[C@H]2O[C@@H](OCC(=O)[C@@]3(O)[C@H](C)C[C@H]4[C@@H]5CCC6=CC(=O)C=C[C@]6(C)[C@@]5(F)[C@@H](O)C[C@@]43C)[C@H](OC(=O)c3ccc(C)cc3)[C@@H](OC(=O)c3ccc(C)cc3)[C@@H]2OC(=O)c2ccc(C)cc2)cc1 [Compound 4β]	–	–	-7.9 ± 5	–	–	–	–	–
Cc1ccc(C(=O)OC[C@H]2O[C@H](OCC(=O)[C@@]3(O)[C@H](C)C[C@H]4[C@@H]5CCC6=CC(=O)C=C[C@]6(C)[C@@]5(F)[C@@H](O)C[C@@]43C)[C@H](OC(=O)c3ccc(C)cc3)[C@@H](OC(=O)c3ccc(C)cc3)[C@H]2OC(=O)c2ccc(C)cc2)cc1 [Compound 14α]	–	–	5.7 ± 1.9	–	–	–	–	–
Cc1ccc(C(=O)OC[C@H]2O[C@@H](OCC(=O)[C@@]3(O)[C@H](C)C[C@H]4[C@@H]5CCC6=CC(=O)C=C[C@]6(C)[C@@]5(F)[C@@H](O)C[C@@]43C)[C@H](OC(=O)c3ccc(C)cc3)[C@@H](OC(=O)c3ccc(C)cc3)[C@H]2OC(=O)c2ccc(C)cc2)cc1 [Compound 14β]	–	–	-8.7 ± 7.2	–	–	–	–	–
Cc1ccc(C(=O)OC[C@H]2O[C@H](OCC(=O)[C@@]3(O)[C@H](C)C[C@H]4[C@@H]5CCC6=CC(=O)C=C[C@]6(C)[C@@]5(F)[C@@H](O)C[C@@]43C)[C@@H](OC(=O)c3ccc(C)cc3)[C@@H](OC(=O)c3ccc(C)cc3)[C@@H]2OC(=O)c2ccc(C)cc2)cc1 [Compound 24α, mannosyldexamethasone]	–	–	-3.7 ± 4.5	–	–	–	–	–
CC(=O)N[C@H]1[C@H](OCC(=O)[C@@]2(O)[C@H](C)C[C@H]3[C@@H]4CCC5=CC(=O)C=C[C@]5(C)[C@@]4(F)[C@@H](O)C[C@@]32C)O[C@H](COC(C)=O)[C@@H](OC(C)=O)[C@@H]1OC(C)=O [Compound 34β, N-acetylglucosaminyldexamethasone]	–	–	-21.3 ± 3.9	–	–	–	–	–
CC(=O)N[C@H]1[C@H](OCC(=O)[C@@]2(O)[C@H](C)C[C@H]3[C@@H]4CCC5=CC(=O)C=C[C@]5(C)[C@@]4(F)[C@@H](O)C[C@@]32C)O[C@H](CO)[C@@H](O)[C@@H]1O [Compound 35β, β-N-acetylglucosaminyldexamethasone]	–	–	-21.9 ± 4.2	–	–	–	–	–
CC(=O)N[C@H]1[C@H](OCC(=O)[C@@]2(O)[C@H](C)C[C@H]3[C@@H]4CCC5=CC(=O)C=C[C@]5(C)[C@@]4(F)[C@@H](O)C[C@@]32C)O[C@H](COC(C)=O)[C@H](OC(C)=O)[C@@H]1OC(C)=O [Compound 44β]	–	–	-16.5 ± 3	–	–	–	–	–
CC(=O)N[C@H]1[C@H](OCC(=O)[C@@]2(O)[C@H](C)C[C@H]3[C@@H]4CCC5=CC(=O)C=C[C@]5(C)[C@@]4(F)[C@@H](O)C[C@@]32C)O[C@H](CO)[C@H](O)[C@@H]1O [Compound 45β, N-acetylgalactosaminyldexamethasone]	–	–	-28.1 ± 3.5	–	–	–	–	–
COC(=O)[C@H]1O[C@@H]2OC(C)(OCC(=O)[C@@]3(O)[C@H](C)C[C@H]4[C@@H]5CCC6=CC(=O)C=C[C@]6(C)[C@@]5(F)[C@@H](O)C[C@@]43C)O[C@@H]2[C@@H](OC(C)=O)[C@@H]1OC(C)=O (stereo partly drawn) [Compound 54']	–	–	-44.8 ± 2.4	–	–	–	–	–
Cc1ccc(C(=O)OC[C@H]2O[C@@H](OCC(=O)[C@@]3(O)[C@@H](C)C[C@H]4[C@@H]5CCC6=CC(=O)C=C[C@]6(C)[C@@]5(F)[C@@H](O)C[C@@]43C)[C@H](OC(=O)c3ccc(C)cc3)[C@@H](OC(=O)c3ccc(C)cc3)[C@@H]2OC(=O)c2ccc(C)cc2)cc1 [Compound 91β, Glucosylbetamethasone (per Tol)]	4.3 ± 8.2	18.9 ± 8.8	–	17.1 ± 6.7	25.3 ± 5.3	6.9 ± 5.1	18.4 ± 6.1	–
C[C@H]1C[C@H]2[C@@H]3CCC4=CC(=O)C=C[C@]4(C)[C@@]3(F)[C@@H](O)C[C@]2(C)[C@@]1(O)C(=O)CO[C@@H]1O[C@H](COC(=O)c2ccccc2)[C@@H](OC(=O)c2ccccc2)[C@H](OC(=O)c2ccccc2)[C@H]1OC(=O)c1ccccc1 [Compound 100β, glucosylbetamethasone (benzoyl derivative)]	60.5 ± 5.8	69.4 ± 6.7	–	11 ± 6.5	20.8 ± 11.7	4.1 ± 11.3	17.5 ± 5.9	–
C[C@@H]1C[C@H]2[C@@H]3C[C@H](F)C4=CC(=O)C=C[C@]4(C)[C@@]3(F)[C@@H](O)C[C@]2(C)[C@H]1C(=O)CO[C@@H]1O[C@H](COC(=O)c2ccccc2)[C@@H](OC(=O)c2ccccc2)[C@H](OC(=O)c2ccccc2)[C@H]1OC(=O)c1ccccc1 [Compound 110β, glucosyldiflucortolone (benzoyl derivative)]	70.3 ± 1.9	97.2 ± 0.5	–	16.8 ± 7.1	34.4 ± 8.9	58.7 ± 1.4	79.6 ± 8.5	–
C[C@@H]1C[C@H]2[C@@H]3C[C@H](F)C4=CC(=O)C=C[C@]4(C)[C@@]3(F)[C@@H](O)C[C@]2(C)[C@H]1C(=O)CO[C@@H]1O[C@H](COC(=O)c2ccc(Cl)cc2)[C@@H](OC(=O)c2ccc(Cl)cc2)[C@H](OC(=O)c2ccc(Cl)cc2)[C@H]1OC(=O)c1ccc(Cl)cc1 [Compound 112β, glucosyldiflucortolone (p-chlorobenzoyl derivative)]	61.3 ± 2.2	93.1 ± 1.6	–	15.9 ± 6.9	36.1 ± 9.2	27.1 ± 2.4	43.7 ± 2.5	–
CC(=O)OC[C@H]1O[C@@H](OCC(=O)[C@H]2[C@H](C)C[C@H]3[C@@H]4C[C@H](F)C5=CC(=O)C=C[C@]5(C)[C@@]4(F)[C@@H](O)C[C@@]32C)[C@H](OC(C)=O)[C@@H](OC(C)=O)[C@@H]1OC(C)=O [Compound 113β, glucosyldiflucortolone (acetyl derivative)]	90.5 ± 0.6	97.5 ± 0.7	–	47.4 ± 11	90.5 ± 6.6	60.8 ± 9.3	97.1 ± 0.5	–
CCCCC(=O)OCC(=O)[C@H]1[C@H](C)C[C@H]2[C@@H]3C[C@H](F)C4=CC(=O)C=C[C@]4(C)[C@@]3(F)[C@@H](O)C[C@@]21C [Diflucortolone valerate, reference compound]	–	–	–	–	–	–	–	inhibition in vivo at 0.01 mg [1, 8]: 12.8 ± 5.1%; inhibition in vivo at 1 mg [1, 8]: 66 ± 7.1%
CCCC(=O)O[C@]1(C(=O)COC(C)=O)CC[C@H]2[C@@H]3C[C@H](F)C4=CC(=O)C=C[C@]4(C)[C@@]3(F)[C@@H](O)C[C@@]21C [Diflupredonate, reference compound]	78.8 ± 5	96.2 ± 1.2	–	-11 ± 23.1	17.4 ± 13.5	35 ± 10.3	65.3 ± 12.1	Effects on thymus weight, per cent of inhibition over the control thymus weight ([1]; 0.01 mg/rat, 7 days): 14.7 ± 10.4 per cent; Effects on thymus weight, per cent of inhibition over the control thymus weight ([1]; 0.1 mg/rat, 7 days): 71.2 ± 2.9 per cent; Effects on thymus weight, per cent of inhibition over the control thymus weight ([1]; 1.0 mg/rat, 7 days): 71.8 ± 3.2 per cent
Diflurasone acetate [reference compound]	–	–	–	–	–	–	–	Effects on granuloma weight, per cent of inhibition over the control ([1]; 0.01 mg/rat, 7 days): -13.1 ± 13.3 per cent; Effects on granuloma weight, per cent of inhibition over the control ([1]; 0.1 mg/rat, 7 days): 4.0 ± 10.5 per cent; Effects on granuloma weight, per cent of inhibition over the control ([1]; 1.0 mg/rat, 7 days): 11.7 ± 12.4 per cent
